# Reference: PMC9636434, “Discovery of small molecule agonists of the Relaxin Family Peptide Receptor 2” (Communications Biology, 2022)
# Like-named read-outs stand apart in the source and are kept apart here.
# Experiment: Pharmacokinetic study, 3 mg/kg IV, 10 mg/kg PO and 10 mg/kg PO QD*3, plasma, liver and bone
# Assay type: in vivo, mouse
# Conditions: female, mouse
# Protocol: The concentration of compound in plasma, liver, and long bones was detected using liquid chromatography tandem mass spectrometry (LC-MS/MS). Samples were collected after a single intraperitoneal (IP) administration at 30 mg/kg, a single intravenous (IV) administration at 3 mg/kg, a single oral (PO) administration at 10 mg/kg, and a daily PO administration for 3 consecutive days at 10 mg/kg. The compound was formulated in 75% PEG300 + 25% of 40% aq. HPBCD for IV and PO administration and in 60% Phosal + 40% PEG300 for IP administration. All tissue samples were homogenized in water at a tissue weight to water volume ratio 1:3.
# IV administration, one 10 mg/kg PO administration and three 10 mg/kg PO administrations (QD*3). a Plasma, b liver and c bone profiles in female mice. The actual concentration (ng/g) is the detected value (ng/mL) multiplied by 4. Drug vehicle is 25% aq. 40% HP-b-CD - 75% PEG300. 3 mice were used per time point. Results are expressed as the mean ± SEM.
smiles,measurement,setting,value
O=C1Nc2ccc(-c3cc(C(F)(F)F)cc(C(F)(F)F)c3)cc2C(=O)N2CCN(C(=O)COc3ccc(OC(F)(F)F)cc3I)C[C@@H]12 [compound 6641],concentration at 0.25 h,"C57BL/6J, bone (long bones), po, 10 mg/kg, bone, PO, 0.25 h, individual animals, read-out: Bone 6641 PO concentration",5.39 ng/g
same,concentration at 0.5 h,"C57BL/6J, bone (long bones), po, 10 mg/kg, bone, PO, 0.5 h, individual animals, read-out: Bone 6641 PO concentration",27.1 ng/g
same,concentration at 1 h,"C57BL/6J, bone (long bones), po, 10 mg/kg, bone, PO, 1 h, individual animals, read-out: Bone 6641 PO concentration",114 ng/g
same,concentration at 3 h,"C57BL/6J, bone (long bones), po, 10 mg/kg, bone, PO, 3 h, individual animals, read-out: Bone 6641 PO concentration",140 ng/g
same,concentration at 0.083 h,"C57BL/6 J, liver, iv, 3 mg/kg, liver, IV, 0.083 h, individual animals, read-out: Liver 6641 IV concentration",26000 ng/g
same,concentration at 0.25 h,"C57BL/6 J, liver, iv, 3 mg/kg, liver, IV, 0.25 h, individual animals, read-out: Liver 6641 IV concentration",17200 ng/g
same,concentration at 0.5 h,"C57BL/6J, liver, iv, 3 mg/kg, liver, IV, 0.5 h, individual animals, read-out: Liver 6641 IV concentration",8740 ng/g
same,concentration at 3 h,"C57BL/6J, liver, iv, 3 mg/kg, liver, IV, 3 h, individual animals, read-out: Liver 6641 IV concentration",1570 ng/g
same,concentration at 7 h,"C57BL/6 J, liver, iv, 3 mg/kg, liver, IV, 7 h, individual animals, read-out: Liver 6641 IV concentration",474 ng/g
same,concentration at 24 h,"C57BL/6 J, liver, iv, 3 mg/kg, liver, IV, 24 h, individual animals, read-out: Liver 6641 IV concentration",28 ng/g
same,concentration at 0.083 h,"C57BL/6 J, liver, po, 10 mg/kg, liver, PO (QD*3), 0.083 h, individual animals, read-out: Liver 6641 PO (QD*3) concentration",44.1 ng/g
same,concentration at 1 h,"C57BL/6J, liver, po, 10 mg/kg, liver, PO (QD*3), 1 h, individual animals, read-out: Liver 6641 PO (QD*3) concentration",3320 ng/g
same,concentration at 3 h,"C57BL/6J, liver, po, 10 mg/kg, liver, PO (QD*3), 3 h, individual animals, read-out: Liver 6641 PO (QD*3) concentration",1900 ng/g
same,concentration at 7 h,"C57BL/6 J, liver, po, 10 mg/kg, liver, PO (QD*3), 7 h, individual animals, read-out: Liver 6641 PO (QD*3) concentration",1010 ng/g
same,concentration at 24 h,"C57BL/6 J, liver, po, 10 mg/kg, liver, PO (QD*3), 24 h, individual animals, read-out: Liver 6641 PO (QD*3) concentration",32.3 ng/g
same,concentration at 0.083 h,"C57BL/6 J, liver, po, 10 mg/kg, liver, PO, 0.083 h, individual animals, N/A: Below detection level, read-out: Liver 6641 PO concentration",5.14 ng/g
same,concentration at 0.25 h,"C57BL/6 J, liver, po, 10 mg/kg, liver, PO, 0.25 h, individual animals, read-out: Liver 6641 PO concentration",321 ng/g
same,concentration at 1 h,"C57BL/6J, liver, po, 10 mg/kg, liver, PO, 1 h, individual animals, read-out: Liver 6641 PO concentration",3040 ng/g
same,concentration at 3 h,"C57BL/6J, liver, po, 10 mg/kg, liver, PO, 3 h, individual animals, read-out: Liver 6641 PO concentration",1940 ng/g
same,concentration at 7 h,"C57BL/6 J, liver, po, 10 mg/kg, liver, PO, 7 h, individual animals, read-out: Liver 6641 PO concentration",1210 ng/g
same,concentration at 24 h,"C57BL/6 J, liver, po, 10 mg/kg, liver, PO, 24 h, individual animals, read-out: Liver 6641 PO concentration",28.5 ng/g
same,concentration at 48 h,"C57BL/6 J, liver, po, 10 mg/kg, liver, PO, 48 h, individual animals, read-out: Liver 6641 PO concentration",2.88 ng/g
same,concentration at 0.083 h,"C57BL/6 J, plasma, iv, 3 mg/kg, IV, Time 0.083 h, individual values (1)-(3), read-out: Plasma concentration",2030 ng/mL
same,concentration at 0.25 h,"C57BL/6 J, plasma, iv, 3 mg/kg, IV, Time 0.25 h, individual values (1)-(3), read-out: Plasma concentration",1260 ng/mL
same,concentration at 0.5 h,"C57BL/6 J, plasma, iv, 3 mg/kg, IV, Time 0.5 h, individual values (1)-(3), read-out: Plasma concentration",721 ng/mL
same,concentration at 1 h,"C57BL/6 J, plasma, iv, 3 mg/kg, IV, Time 1 h, individual values (1)-(3), read-out: Plasma concentration",343 ng/mL
same,concentration at 3 h,"C57BL/6 J, plasma, iv, 3 mg/kg, IV, Time 3 h, individual values (1)-(3), read-out: Plasma concentration",220 ng/mL
same,concentration at 7 h,"C57BL/6 J, plasma, iv, 3 mg/kg, IV, Time 7 h, individual values (1)-(3), read-out: Plasma concentration",67.6 ng/mL
same,concentration at 24 h,"C57BL/6 J, plasma, iv, 3 mg/kg, IV, Time 24 h, individual values (1)-(3), read-out: Plasma concentration",4.37 ng/mL
same,concentration at 48 h,"C57BL/6 J, plasma, iv, 3 mg/kg, IV, Time 48 h, individual values (1)-(3), N/A: Below detection level, read-out: Plasma concentration",0.874 ng/mL
same,concentration at 0.083 h,"C57BL/6 J, plasma, po, 10 mg/kg, PO (QD*3), Time 0.083 h, individual values (1)-(3), read-out: Plasma concentration",8.04 ng/mL
same,concentration at 0.25 h,"C57BL/6 J, plasma, po, 10 mg/kg, PO (QD*3), Time 0.25 h, individual values (1)-(3), read-out: Plasma concentration",95.9 ng/mL
same,concentration at 1 h,"C57BL/6 J, plasma, po, 10 mg/kg, PO (QD*3), Time 1 h, individual values (1)-(3), read-out: Plasma concentration",336 ng/mL
same,concentration at 3 h,"C57BL/6 J, plasma, po, 10 mg/kg, PO (QD*3), Time 3 h, individual values (1)-(3), read-out: Plasma concentration",264 ng/mL
same,concentration at 7 h,"C57BL/6 J, plasma, po, 10 mg/kg, PO (QD*3), Time 7 h, individual values (1)-(3), read-out: Plasma concentration",144 ng/mL
same,concentration at 24 h,"C57BL/6 J, plasma, po, 10 mg/kg, PO (QD*3), Time 24 h, individual values (1)-(3), read-out: Plasma concentration",5.56 ng/mL
same,concentration at 48 h,"C57BL/6 J, plasma, po, 10 mg/kg, PO (QD*3), Time 48 h, individual values (1)-(3), N/A: Below detection level, read-out: Plasma concentration",1.04 ng/mL
same,concentration at 0.083 h,"C57BL/6 J, plasma, po, 10 mg/kg, PO, Time 0.083 h, individual values (1)-(3), N/A: Below detection level, read-out: Plasma concentration",1.64 ng/mL
same,concentration at 0.25 h,"C57BL/6 J, plasma, po, 10 mg/kg, PO, Time 0.25 h, individual values (1)-(3), read-out: Plasma concentration",43.8 ng/mL
same,concentration at 1 h,"C57BL/6 J, plasma, po, 10 mg/kg, PO, Time 1 h, individual values (1)-(3), read-out: Plasma concentration",369 ng/mL
same,concentration at 3 h,"C57BL/6 J, plasma, po, 10 mg/kg, PO, Time 3 h, individual values (1)-(3), read-out: Plasma concentration",219 ng/mL
same,concentration at 7 h,"C57BL/6 J, plasma, po, 10 mg/kg, PO, Time 7 h, individual values (1)-(3), read-out: Plasma concentration",134 ng/mL
same,concentration at 24 h,"C57BL/6 J, plasma, po, 10 mg/kg, PO, Time 24 h, individual values (1)-(3), read-out: Plasma concentration",4.25 ng/mL
same,concentration at 48 h,"C57BL/6 J, plasma, po, 10 mg/kg, PO, Time 48 h, individual values (1)-(3), N/A: Below detection level, read-out: Plasma concentration",1.39 ng/mL
